Laboratory results published in patent US8637467B2, “Pharmaceutical being used for treating cancer and fibrosis disease and the composition and uses thereof” (Wuxi MTLH Biotechnology Co., Ltd., priority 2008, dated 2014).
Where no end group is shown, it is not given here.

Legend:
α-SMA mRNA = assay: RT-PCR of α-SMA mRNA expression in HSC; type: cell-based, SD rat; settings: after 48 hours, FIG. 4
Description: (§1) HSC from SD rats were separated using centrifuging on gradient created by Pronase-collagenase and Nycodenz. HSC cells at 1.5×10^5/cm2 was plated at 6-well plate, or culture dish (100 mm diameter). The culture medium is DMEM with 20% serum from newborn calf. The purity of HSC cells was determined using Vitamin A self-fluorescence and anti-Desmin immunocytochemistry experiments. Cell viability was determined using trypan blue staining. First generation HSC's purity and viability were 90% and 95% respectively. HSC can self-activate if grown in non-ECM condition, which means HSC can express α-SMA, and Vitamin A drop disappears. After cell fusion, activated HSC is released with trypsin, and propagate.
Use Trizol reagent to extract total RNA, then conduct two-step RT-PCR according to kit instructions.

α-SMA protein = assay: Western blot of α-SMA protein expression in HSC; type: cell-based, SD rat; settings: FIG. 5
Description: as §1
Collect cells and add cell lysis buffer, extract total protein. Total protein amount was determined using Bradford assay. 40 μg total protein was examined using 10% SDS polyacrylamide gel. The gel was probed using monoclonal antibody against α-SMA.

liver cancer (H22) = assay: Xenograph liver cancer nude mice model (H22); type: in vivo; settings: H22, 1 mg/kg
Description: (§2) Experimental animals: Female BALB/cA nude mice, age 35-40 days, weight 18-22 g, provided by Shanghai Silaike Experimental Animal Co. Ltd., certificate number: SOCK (Shanghai) 2007-0005.
(§3) The tumor of xenograph nude mice grew to 100˜300 mm^3. Tumor mice were divided into different groups for drug testing. In the experiment below, there were 12 nude mice in negative control group, and 6 nude mice in the group with tested drug. Tumor diameter was measured three times each week, and mice weight was measured at the same time.
(§4) T/C (relative tumor inhibition rate) % was calculated as below: • (1) tumor volume, TV, calculated as below: TV=½×a×b^2 • A and b are length and width. • (2) relative tumor volume, RTV, calculated as below: RTV=TVt/TV0. • TV0 ? is tumor volume at the beginning of drug use (d0), TVt is tumor volume at later time point. • (3) relative tumor inhibition rate T/C (%), calculate as below:
(§5) [formula] TRTV: treatment group RTV; CRTV: negative control RTV

[1] = test system: human liver cancer BEL-7402; assay: Human liver cancer BEL-7402 xenograph nude mice; type: in vivo; settings: for T/C(%) relative tumor inhibition rate: 6 times a week, 3 weeks
Description: as §2, §3, §4, §5
[…] Docetaxol was positive control, at dosing of 20 mg/kg, once a week. Negative control was given saline solution. The xenograph nude mice were treated for 3 weeks.

[2] = test system: human stomach cancer SGC-7901; assay: Human stomach cancer SGC-7901 xenograph nude mice; type: in vivo; settings: 0.125 mg/kg IV, 6 times a week, 3 weeks
Description: as §2, §3, §4, §5
Peptide SEQ ID No:1 was given through tail vain (IV), at dosing of 1 mg/kg, 0.5 mg/kg, 0.25 mg/kg, 0.125 mg/kg, and 0.0625 mg/kg, 6 times a week. 5-FU was positive control, at dosing of 25 mg/kg, once a week. Negative control was given saline solution. The xenograph nude mice were treated for 3 weeks.

human lung cancer A549 = assay: Human lung cancer A549 xenograph nude mice; type: in vivo; settings: 6 times a week, 3 weeks
Description: as §2, §3, §4, §5
Peptide SEQ ID No:1 was given through tail vein (IV), at dosing of 0.5 mg/kg, 0.25 mg/kg, and 0.125 mg/kg, 6 times a week. Docetaxol was positive control, at dosing of 20 mg/kg, once a week. Negative control was given saline solution. The xenograph nude mice were treated for 3 weeks.

[3] = Mice weight in xenograph tumor mice models; type: in vivo, BALB/cA nude mice; settings: all the xenograph tumor mice models, different concentration
Description: as §3

[4] = test system: human liver cancer cell BEL-7402; assay: Migration of liver cancer cells through base membrane; type: cell-based
Description: Peptide SEQ ID No:1 from example 1 can inhibit human liver cancer cell BEL-7402 migration from base membrane, at 0.01, 0.1, or 1 mg/ml (12 hour incubation).

[5] = test system: human liver cancer cell BEL-7402; assay: Cancer cell attachment to base membrane; type: cell-based; settings: incubated with cancer cells for 12 hours, FIG. 6
[6] = test system: phosphorylation of Erk1/2; assay: Western blot, PDGFR intracellular Ras-Raf signaling pathway in HUVEC; type: cell-based, Human; settings: 6 hours, 10 ug/ml (2 uM)
Description: Various concentration of Peptide SEQ ID No:1 was incubated with Human Umbilical Vein Endothelial Cells (HUVEC) cells for 6 hours. Protein was extracted from these cells and western blot was performed. Antibody for p-stat1: Antibody against phophorylated-Tyr701; Antibody for p-MEK1/2: Antibody against phophorylated-Ser217/221 peptide; Antibody for p-Erk1/2: Antibody against phophorylated-Ser202/204. beta-Actin was a control to make sure all lanes are loaded with same amount of protein.

Substance: SKVTKKYHEVLQLRPKTGVRGLHKSLTDVALEHHEECDCVCRGSTGG-OH (cysteines drawn unpaired) [Peptide SEQ ID NO:1]
- α-SMA mRNA expression (RT-PCR) (α-SMA mRNA): inhibits α-SMA mRNA expression
- α-SMA protein expression (Western Blot) (α-SMA protein; after 48 hours): starts to decrease α-SMA protein expression
- α-SMA protein expression (Western Blot) (α-SMA protein; after 72 hours): significantly decrease α-SMA protein expression
- inhibition rate, tumor (liver cancer (H22)): 67.8%
- T/C(%) relative tumor inhibition rate ([1]; 0.0625 mg/kg IV): 58.56%
- T/C(%) relative tumor inhibition rate ([1]; 0.125 mg/kg IV): 62.10%
- T/C(%) relative tumor inhibition rate ([1]; 0.25 mg/kg IV): 69.06%
- T/C(%) relative tumor inhibition rate ([1]; 0.5 mg/kg IV): 64.90%
- inhibition, tumor ([1]; BEL-7402, 1 mg/kg): 39.7%
- T/C(%) relative tumor inhibition rate [2]: 47.66%
- T/C(%) relative tumor inhibition rate (human lung cancer A549; 0.125 mg/kg IV): 48.96%
- T/C(%) relative tumor inhibition rate (human lung cancer A549; 0.25 mg/kg IV): 47.98%
- weight of the mice [3]: not affected
- migration from base membrane ([4]; BEL-7402, 0.01, 0.1, or 1 mg/ml, 12 hour incubation): can inhibit
- cancer cell migration ability through base membrane ([4]; incubated with cancer cells for 12 hours, FIG. 7): inhibits cancer cell migration ability through base membrane
- cancer cell attachment to base membrane [5]: inhibited cancer cell attachment to base membrane
- phosphorylation of Erk1/2 (western blot) [6]: significantly inhibits phosphorylation of Erk1/2
